# Source: patent US20040231558A1, “Water-color ink” (priority 2001, published 2004)
# Legend:
# [1] = Evaluation of light fastness-1 (OD value of printed portion after 100 hours xenon fadeometer); assay type: physicochemical; settings: ink prepared as in Example 1 from the salt named in the row; OD value of printed portion after 100 hours xenon fadeometer
# In short: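 Prints were made on a piezo ink-jet printer. Optical density of the printed portion was measured after 100 hours of irradiation in a xenon fadeometer.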
# [2] = Evaluation of light fastness-2 (OD value of printed portion after 400 hours xenon fadeometer); assay type: physicochemical; settings: ink prepared as in Example 1 from the salt named in the row; OD value of printed portion after 400 hours xenon fadeometer
# In short: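 Ink loaded into a piezo ink-jet printer (EM-930C) and printed; printed portion irradiated for 400 hours in a xenon fadeometer, then printing density (OD value) measured to judge light fastness.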
# [3] = Evaluation of moisture resistance (image-recorded paper at 40° C. and humidity 85%, visual observation); assay type: physicochemical; settings: image-recorded paper at 40° C. and humidity 85%, visually observed
# [4] = Evaluation of storage stability of ink (40° C. for 3 months, insoluble matter and clogging); assay type: physicochemical; settings: recording liquid stored at 40° C. for 3 months; insoluble matter and clogging
# In short: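 Ink stored at 40° C. for 3 months, then checked for precipitated insoluble matter. Clogging assessed after long continuous recording on a piezo-type ink-jet printer.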
# [5] = Solubility in water of the salt
SMILES,(A)-1 light fastness-1 [1],(A)-2 light fastness-2 [2],(B) moisture resistance [3],(C) storage stability [4],Solubility in water ([5]; salt type M1 to M4),Solubility in water ([5]; % by weight)
Cc1c(C(=O)O)ccc(C(=O)O)c1N=Nc1c(C)c(C#N)c(=O)n(CCCS(=O)(=O)O)c1O [compound 137],⊚,⊚,Δ,◯,>5%,–
Cc1c(N=Nc2cc(C(=O)O)ccc2C(=O)O)c(O)n(-c2cc(S(=O)(=O)O)cc(S(=O)(=O)O)c2)c(=O)c1C#N [compound 142],⊚,◯,◯,◯,>8%,–
Cc1c(N=Nc2cc(C(=O)O)ccc2C(=O)O)c(O)n(Cc2cc(S(=O)(=O)O)cc(S(=O)(=O)O)c2)c(=O)c1C#N [compound 149],⊚,◯,◯,◯,>10%,–
Cc1c(C(=O)O)ccc(C(=O)O)c1N=Nc1c(C)c(C#N)c(=O)n(CC(O)CC(=O)O)c1O (stereo not shown) [compound 164],⊚,◯,◯,◯,>8%,–
Cc1c(N=Nc2cc(C(=O)[O-])ccc2C(=O)[O-])c(O)n(CCNc2nc(Cl)nc(NCCn3c(O)c(N=Nc4cc(C(=O)[O-])ccc4C(=O)[O-])c(C)c(C#N)c3=O)n2)c(=O)c1C#N.[K+].[K+].[K+].[K+] [potassium salt of compound No. 245],⊚,∘,⊚,∘,–,≥ 3%
